pKi: −log10 of the molar value.
Tested on: H3 receptors in rat brain
Experiment: not given
Details: cited from Arrang et al.; cited from earlier work

Structure (SMILES)	maximal inhibition of release
NCCc1c[nH]cn1 [histamine]	approximately 60%

Target: T1, H3 receptor (Cavia porcellus, UniProt Q9JI35)
T1 construct: The source of the H3 receptors in this experiment was guinea pig brain; from tissue; host or cells: guinea pig brain membranes
Experiment: H3 Receptor Binding Assay (displacement of [3H]R-α-methylhistamine or [3H]-N-methylhistamine)
Details: guinea pig brain membranes; 3 nM [3H]R-α-methylhistamine or [3H]-N-methylhistamine; 30°, 30 min; duplicate, standard error less than 10%
Description: The compounds of this invention are either agonists or antagonists of the histamine H3 receptor. […] The animals used weighed 400-600 g. The tissue was homogenized using a Polytron in a solution of 50 mM Tris, pH 7.5. The final concentration of tissue in the homogenization buffer was 10% w/v. The homogenates were centrifuged at 1000×g for 10 min. in order to remove clumps of tissue and debris. […] The membranes were frozen and stored at -70° C. until needed. All compounds to be tested were dissolved in DMSO and then diluted into the binding buffer (50 mM Tris, pH 7.5) such that the final concentration was 2 μg/ml with 0.1% DMSO. Membranes were then added (400 μg of protein) to the reaction tubes. […] Bound ligand was separated from unbound ligand by filtration, and the amount of radioactive ligand bound to the membranes was quantitated by liquid scintillation spectrometry.

T1 sequence (Q9JI35 whole entry): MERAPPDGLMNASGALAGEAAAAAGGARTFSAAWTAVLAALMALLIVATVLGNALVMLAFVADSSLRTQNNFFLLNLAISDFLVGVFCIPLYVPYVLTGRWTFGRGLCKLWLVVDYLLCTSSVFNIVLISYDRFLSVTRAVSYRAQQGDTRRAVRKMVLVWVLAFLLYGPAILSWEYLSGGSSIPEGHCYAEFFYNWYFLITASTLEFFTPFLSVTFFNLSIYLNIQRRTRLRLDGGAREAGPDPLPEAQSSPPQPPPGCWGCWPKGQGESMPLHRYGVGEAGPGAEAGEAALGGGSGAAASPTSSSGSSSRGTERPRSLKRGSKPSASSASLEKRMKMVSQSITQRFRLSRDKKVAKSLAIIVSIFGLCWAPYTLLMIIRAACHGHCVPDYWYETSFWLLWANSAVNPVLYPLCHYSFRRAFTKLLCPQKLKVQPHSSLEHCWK

Structure (SMILES)	pKi
O=C(CCN1CCC(CCc2cnc[nH]2)C1)Nc1ccc(Cl)cc1 (centres unmarked) [Compound 45]	9.05
O=S(=O)(c1ccc(Cl)cc1)N1CCC(Cc2cnc[nH]2)CC1 [Compound 78]	6.82
c1ccc(OCCCN2CCC(Cc3cnc[nH]3)CC2)cc1 [Compound 79]	8.40
O=C(CCN1CCC(Cc2cnc[nH]2)CC1)Nc1cccc(Cl)c1 [Compound 81]	9.70
O=C(CCN1CCC(Cc2c[nH]cn2)CC1)NCCc1ccc(Cl)cc1 [Compound 82]	9.15
O=C(CCN1CCC(Cc2cnc[nH]2)CC1)Nc1cc(Cl)cc(Cl)c1 [Compound 83]	9.15
O=C(CCN1CCC(Cc2cnc[nH]2)CC1)Nc1ccc(Cl)cc1 [Compound 84]	9.40
O=C(Nc1cc(Cl)cc(Cl)c1)N1CCC(Cc2cnc[nH]2)CC1 [Compound 85]	6.66
O=C(CCOc1ccccc1)N1CCC(Cc2cnc[nH]2)CC1 [Compound 86]	8.30
O=C(CCOc1ccc(Cl)cc1)N1CCC(Cc2cnc[nH]2)CC1 [Compound 87]	8.05
Clc1ccc(OCCCN2CCC(Cc3cnc[nH]3)CC2)cc1 [Compound 88]	8.05
O=C(CCN1CCC(Cc2cnc[nH]2)CC1)Nc1ccc(I)cc1 [Compound 89]	8.30
O=C(CN1CCC(Cc2cnc[nH]2)CC1)Nc1ccc(Cl)cc1 [Compound 90]	7.05
O=C(Nc1cccc(Cl)c1)N1CCC(Cc2cnc[nH]2)CC1 [Compound 91]	7.70
O=C(Nc1ccc(Cl)cc1)N1CCC(Cc2cnc[nH]2)CC1 [Compound 92]	6.80
O=C(CCc1ccc(Cl)cc1)N1CCC(Cc2cnc[nH]2)CC1 [Compound 93]	7.40
O=C(CCN1CCC(Cc2c[nH]cn2)CC1)Nc1cccc(F)c1 [Compound 94]	10.00
O=C(CC(=O)N1CCC(Cc2cnc[nH]2)CC1)Nc1cccc(Cl)c1 [Compound 95]	7.30
O=C(CCCc1ccccc1)N1CCC(Cc2cnc[nH]2)CC1 [Compound 96]	8.10
O=S(=O)(c1ccc(OC(F)(F)F)cc1)N1CCC(CCc2cnc[nH]2)C1 (centres unmarked) [Compound 97]	7.24
FC(F)(F)c1ccc(NCCCN2CCC(CCc3cnc[nH]3)CC2)cc1 [Compound 114]	7.22
O=C(Cc1ccc(Cl)c(Cl)c1)N1CCC(CCc2cnc[nH]2)CC1 [Compound 115]	7.24
O=C(CCN1CCC(CCc2cnc[nH]2)CC1)Nc1ccc(Cl)cc1 [Compound 116]	7.96
O=C(CCN1CCC(CCc2cnc[nH]2)CC1)Nc1ccc(C(F)(F)F)cc1 [Compound 117]	7.30
O=C(Nc1cccc(Cl)c1)N1CCC(CCc2cnc[nH]2)CC1 [Compound 118]	6.68
